Experimental data from ChEMBL document CHEMBL2413039, “Novel N-hydroxyfurylacrylamide-based histone deacetylase (HDAC) inhibitors with branched CAP group (Part 2)” (Bioorg Med Chem, 2013).

Legend:
[1] = system: HepG2; experiment: cells; assay type: functional, cell-based; conditions: Homo sapiens, HepG2, 48 h
[2] = system: A549; experiment: cells; assay type: functional, cell-based; conditions: Homo sapiens, A549, 48 h
[3] = system: HCT-116; experiment: cells; assay type: functional, cell-based; conditions: Homo sapiens, HCT-116, 48 h
[4] = system: PC-3; experiment: cells; assay type: functional, cell-based; conditions: Homo sapiens, PC-3, 48 h
[5] = biological target: Histone deacetylase; assay type: protein assay, Homo sapiens; conditions: hela
[6] = species on record: Homo sapiens; experiment: Selectivity ratio of IC50 for human recombinant HDAC4 to human recombinant HDAC6
[7] = species on record: Homo sapiens; experiment: Selectivity ratio of IC50 for human recombinant HDAC1 to human recombinant HDAC6
[8] = biological target: Histone deacetylase 4 (Homo sapiens, UniProt P56524); experiment: Inhibition of human recombinant HDAC4 using p53 residues 379-382 (RHKKAc) as substrate
Chain of Histone deacetylase 4 (P56524 whole entry, the tested form may be a part): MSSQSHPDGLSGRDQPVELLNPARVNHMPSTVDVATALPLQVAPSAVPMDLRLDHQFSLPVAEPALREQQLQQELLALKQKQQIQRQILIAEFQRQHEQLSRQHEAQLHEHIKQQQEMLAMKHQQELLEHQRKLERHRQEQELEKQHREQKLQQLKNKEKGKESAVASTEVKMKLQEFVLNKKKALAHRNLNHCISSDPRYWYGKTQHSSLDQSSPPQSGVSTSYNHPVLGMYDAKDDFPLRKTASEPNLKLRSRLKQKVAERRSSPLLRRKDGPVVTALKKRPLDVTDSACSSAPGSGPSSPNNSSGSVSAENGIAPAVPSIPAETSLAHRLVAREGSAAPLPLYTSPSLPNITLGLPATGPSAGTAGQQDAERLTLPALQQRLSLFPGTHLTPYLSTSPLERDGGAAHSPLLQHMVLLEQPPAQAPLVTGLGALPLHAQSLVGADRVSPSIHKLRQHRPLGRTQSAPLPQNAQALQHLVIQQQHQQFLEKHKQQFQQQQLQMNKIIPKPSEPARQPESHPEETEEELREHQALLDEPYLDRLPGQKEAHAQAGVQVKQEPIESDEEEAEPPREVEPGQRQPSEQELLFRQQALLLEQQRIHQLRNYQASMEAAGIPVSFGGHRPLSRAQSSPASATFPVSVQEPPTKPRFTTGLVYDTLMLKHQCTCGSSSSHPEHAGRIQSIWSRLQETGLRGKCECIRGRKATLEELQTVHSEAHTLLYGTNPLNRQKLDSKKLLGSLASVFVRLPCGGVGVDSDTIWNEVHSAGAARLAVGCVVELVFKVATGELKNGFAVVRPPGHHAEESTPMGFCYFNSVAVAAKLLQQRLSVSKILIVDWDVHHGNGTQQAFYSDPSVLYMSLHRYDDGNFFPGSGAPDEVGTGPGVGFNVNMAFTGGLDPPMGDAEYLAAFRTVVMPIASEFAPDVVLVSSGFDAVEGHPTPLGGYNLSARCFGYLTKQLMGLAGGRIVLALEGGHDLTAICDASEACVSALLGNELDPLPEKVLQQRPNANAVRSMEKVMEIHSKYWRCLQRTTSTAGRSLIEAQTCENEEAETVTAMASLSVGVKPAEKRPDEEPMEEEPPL

[9] = biological target: Histone deacetylase 1 (Homo sapiens, UniProt Q13547); experiment: Inhibition of human recombinant HDAC1 using p53 residues 379-382 (RHKKAc) as substrate
Chain of Histone deacetylase 1 (Q13547 whole entry, the tested form may be a part): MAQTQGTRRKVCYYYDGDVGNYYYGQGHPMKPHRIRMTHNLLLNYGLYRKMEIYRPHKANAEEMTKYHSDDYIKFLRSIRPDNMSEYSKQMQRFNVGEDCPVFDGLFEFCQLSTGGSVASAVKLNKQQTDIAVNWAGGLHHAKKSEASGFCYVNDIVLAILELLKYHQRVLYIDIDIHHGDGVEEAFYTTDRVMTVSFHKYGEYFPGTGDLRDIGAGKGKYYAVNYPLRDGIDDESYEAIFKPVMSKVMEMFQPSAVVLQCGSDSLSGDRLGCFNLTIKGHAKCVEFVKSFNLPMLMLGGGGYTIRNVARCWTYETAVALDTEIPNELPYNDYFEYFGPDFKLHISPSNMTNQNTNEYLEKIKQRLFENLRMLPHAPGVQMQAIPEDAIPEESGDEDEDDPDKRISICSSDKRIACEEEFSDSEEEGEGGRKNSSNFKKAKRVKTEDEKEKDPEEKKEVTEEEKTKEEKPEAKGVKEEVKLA

[10] = biological target: T1, Protein deacetylase HDAC6 (Homo sapiens, UniProt Q9UBN7)
T1 sequence (Q9UBN7 whole entry): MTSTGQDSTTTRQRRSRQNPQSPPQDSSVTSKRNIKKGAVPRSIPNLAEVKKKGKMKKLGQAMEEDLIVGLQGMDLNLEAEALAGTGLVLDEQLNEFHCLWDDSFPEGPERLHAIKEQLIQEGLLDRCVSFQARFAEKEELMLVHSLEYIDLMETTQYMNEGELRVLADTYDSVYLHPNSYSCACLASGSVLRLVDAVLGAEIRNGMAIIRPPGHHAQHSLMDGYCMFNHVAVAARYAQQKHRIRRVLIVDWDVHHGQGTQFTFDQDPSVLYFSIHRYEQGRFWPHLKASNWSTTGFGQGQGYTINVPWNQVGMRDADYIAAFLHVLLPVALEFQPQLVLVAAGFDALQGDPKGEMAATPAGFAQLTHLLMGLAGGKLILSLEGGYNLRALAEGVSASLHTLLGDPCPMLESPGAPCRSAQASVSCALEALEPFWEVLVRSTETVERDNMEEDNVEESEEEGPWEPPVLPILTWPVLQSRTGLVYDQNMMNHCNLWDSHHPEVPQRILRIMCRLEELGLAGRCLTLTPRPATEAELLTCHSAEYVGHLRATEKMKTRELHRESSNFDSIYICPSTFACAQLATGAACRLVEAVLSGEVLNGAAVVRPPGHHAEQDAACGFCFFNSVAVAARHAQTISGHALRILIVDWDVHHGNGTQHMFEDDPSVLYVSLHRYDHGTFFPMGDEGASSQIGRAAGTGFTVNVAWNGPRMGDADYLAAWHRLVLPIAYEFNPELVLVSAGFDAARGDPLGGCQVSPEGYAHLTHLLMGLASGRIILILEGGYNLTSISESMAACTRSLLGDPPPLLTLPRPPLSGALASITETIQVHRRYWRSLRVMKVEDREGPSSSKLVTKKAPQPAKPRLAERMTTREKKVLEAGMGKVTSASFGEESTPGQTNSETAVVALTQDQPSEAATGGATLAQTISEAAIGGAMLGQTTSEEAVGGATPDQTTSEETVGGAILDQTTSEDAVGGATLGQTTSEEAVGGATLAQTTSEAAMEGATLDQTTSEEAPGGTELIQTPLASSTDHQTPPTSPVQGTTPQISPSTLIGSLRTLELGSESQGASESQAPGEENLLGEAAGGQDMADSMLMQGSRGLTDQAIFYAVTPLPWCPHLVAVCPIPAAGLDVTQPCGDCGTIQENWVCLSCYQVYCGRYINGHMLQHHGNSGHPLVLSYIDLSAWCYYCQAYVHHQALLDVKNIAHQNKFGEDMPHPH

| SMILES | EC50 [1] | EC50 [2] | EC50 [3] | EC50 [4] | IC50 [5] | Ratio IC50 [6] | Ratio IC50 [7] | IC50 [8] | IC50 [9] | IC50 [10] |
| --- | --- | --- | --- | --- | --- | --- | --- | --- | --- | --- |
| O=C(/C=C/c1ccc(CN(CCOc2ccccc2)CCc2ccc3c(c2)OCO3)o1)NO | 68.3 µM | 37.4 µM | 30.6 µM | 23.7 µM | 2.36 µM |  |  |  |  |  |
| CC(C)CN(Cc1ccccc1)Cc1ccc(/C=C/C(=O)NO)o1 | 27.7 µM | 20.5 µM | 26.3 µM | 18.8 µM | 3.17 µM | 11.2 | 18.7 | 12.3 µM | 20.6 µM | 1.1 µM |
| Cc1ccc(OCCCCN(Cc2ccccc2)Cc2ccc(/C=C/C(=O)NO)o2)cc1 | 16.3 µM | 9.82 µM | 5.62 µM | 15.7 µM | 1.31 µM | 23.1 | 8.63 | 12.6 µM | 4.73 µM | 0.55 µM |
| O=C(/C=C/c1ccc(CN(CCCOc2ccccc2)Cc2ccc(-c3ccccc3)cc2)o1)NO | 12.7 µM | 16.6 µM | 2.05 µM | 25.2 µM | > 2.07 µM |  |  |  |  |  |
| O=C(/C=C/c1ccc(CN(CCCCOc2ccccc2)Cc2ccc(-c3ccccc3)cc2)o1)NO | 32.9 µM | 22.4 µM | 2.76 µM | 23.6 µM | > 2.02 µM |  |  |  |  |  |
| O=C(/C=C/c1ccc(CN(CCO)CCc2ccc3c(c2)OCO3)o1)NO | 105 µM | 87.9 µM | 69.5 µM | 92.5 µM | 0.4 µM |  |  |  |  |  |
| O=C(/C=C/c1ccc(CN(CCCOc2ccccc2)CCc2ccc3c(c2)OCO3)o1)NO | 110 µM | 16.3 µM | 37.2 µM | 18.8 µM | > 2.22 µM |  |  |  |  |  |
| CCCCCCCCN(Cc1ccc(-c2ccccc2)cc1)Cc1ccc(/C=C/C(=O)NO)o1 | 36.9 µM | 28.8 µM | 10.4 µM | 36.8 µM | > 2.17 µM |  |  |  |  |  |
| Cc1ccc(OCCN(Cc2ccccc2)Cc2ccc(/C=C/C(=O)NO)o2)cc1 | 13 µM | 52.6 µM | 14.8 µM | 51.7 µM | 1.87 µM | 21.8 | 10 | 68.1 µM | 31.4 µM | 3.13 µM |
| CCCCCN(Cc1ccc(-c2ccccc2)cc1)Cc1ccc(/C=C/C(=O)NO)o1 | 19.7 µM | 14.7 µM | 8.23 µM | 13.4 µM | > 2.39 µM |  |  |  |  |  |
| CCCCCN(CCc1ccc2c(c1)OCO2)Cc1ccc(/C=C/C(=O)NO)o1 | 65.3 µM | 72.5 µM | 74.8 µM | 37.1 µM | 3.49 µM |  |  |  |  |  |
| Cc1ccc(OCCCN(Cc2ccccc2)Cc2ccc(/C=C/C(=O)NO)o2)cc1 | 5.95 µM | 7.95 µM | 6.02 µM | 42.2 µM | 2.54 µM | 14.2 | 10.4 | 13.2 µM | 9.66 µM | 0.93 µM |
| O=C(CCCCCCC(=O)Nc1ccc([C@H]2O[C@@H](CSc3nc(-c4ccccc4)c(-c4ccccc4)o3)C[C@@H](c3ccc(CO)cc3)O2)cc1)NO |  |  |  |  |  |  | 7 |  |  |  |
| O=C(/C=C/c1ccc(CN(Cc2ccccc2)Cc2ccc(-c3ccccc3)cc2)o1)NO | 66.6 µM | 69.8 µM | 9.01 µM | 14.3 µM | > 2.55 µM |  |  |  |  |  |
| CCCCN(CCc1ccc2c(c1)OCO2)Cc1ccc(/C=C/C(=O)NO)o1 | 54.3 µM | 78.2 µM | 17 µM | 33.2 µM | > 2.69 µM |  |  |  |  |  |
| O=C(/C=C/c1ccc(CN(CCCOc2ccccc2)Cc2ccccc2)o1)NO | 15 µM | 25.8 µM | 7.24 µM | 44.9 µM | 1.48 µM | 15.6 | 8.21 | 12.3 µM | 6.48 µM | 0.79 µM |
| CC(C)N(Cc1ccc(-c2ccccc2)cc1)Cc1ccc(/C=C/C(=O)NO)o1 | 15.5 µM | 15.6 µM | 2.74 µM | 24.2 µM | 1.61 µM |  |  |  |  |  |
| CCCCCCN(Cc1ccccc1)Cc1ccc(/C=C/C(=O)NO)o1 | 21.8 µM | 11 µM | 8.96 µM | 23.8 µM | 2.65 µM |  |  |  |  |  |
| Cc1ccc(OCCCCN(Cc2ccc(-c3ccccc3)cc2)Cc2ccc(/C=C/C(=O)NO)o2)cc1 | 15.9 µM | 15.6 µM | 2.76 µM | 37.6 µM | > 1.96 µM |  |  |  |  |  |
| CCN(CCc1ccc2c(c1)OCO2)Cc1ccc(/C=C/C(=O)NO)o1 | 81.7 µM | 84.7 µM | 66 µM | 66.5 µM | 2.31 µM | 41.9 | 16.6 | 20 µM | 7.88 µM | 0.48 µM |

Further compounds by falling EC50 [1], results first:

| EC50 [1] | EC50 [2] | EC50 [3] | EC50 [4] | IC50 [5] | Ratio IC50 [6] | Ratio IC50 [7] | IC50 [8] | IC50 [9] | IC50 [10] | SMILES |
| --- | --- | --- | --- | --- | --- | --- | --- | --- | --- | --- |
| 97.7 µM | 46.8 µM | 35.9 µM | 15.5 µM | 1.57 µM |  |  |  |  |  | O=C(/C=C/c1ccc(CN(CCCCOc2ccccc2)CCc2ccc3c(c2)OCO3)o1)NO |
| 73.2 µM | 35.4 µM | 91.4 µM | 34.5 µM | 2.28 µM |  |  |  |  |  | O=C(/C=C/c1ccc(CN(CCc2ccc3c(c2)OCO3)Cc2ccccc2)o1)NO |
| 67.5 µM | 34.5 µM | 22.7 µM | 26.9 µM | 0.18 µM | 11.6 | 6.94 | 3.96 µM | 2.37 µM | 0.34 µM | CC(C)N(Cc1ccccc1)Cc1ccc(/C=C/C(=O)NO)o1 |
| 44.7 µM | 52.3 µM | 20.1 µM | > 128 µM | > 2.55 µM | 26.2 | 10.5 | 50.6 µM | 20.2 µM | 1.93 µM | O=C(/C=C/c1ccc(CN(CCOc2ccccc2)Cc2ccccc2)o1)NO |
| 38 µM | 39.3 µM | 17.1 µM | 16.1 µM | > 2.69 µM |  |  |  |  |  | CC(C)CN(CCc1ccc2c(c1)OCO2)Cc1ccc(/C=C/C(=O)NO)o1 |
| 28.7 µM | 50.6 µM | 15.9 µM | 7.57 µM | 1.59 µM |  |  |  |  |  | CCCN(CCc1ccc2c(c1)OCO2)Cc1ccc(/C=C/C(=O)NO)o1 |
| 19.4 µM | 23 µM | 6.93 µM | 18.8 µM | 1.71 µM | 7.95 | 3.59 | 9.07 µM | 4.09 µM | 1.14 µM | Cc1ccc(OCCN(Cc2ccc(-c3ccccc3)cc2)Cc2ccc(/C=C/C(=O)NO)o2)cc1 |
| 18.1 µM | 26.4 µM | 9.53 µM | 15.9 µM | 1.21 µM |  |  |  |  |  | O=C(/C=C/c1ccc(CN(CCOc2ccccc2)Cc2ccc(-c3ccccc3)cc2)o1)NO |
| 14.7 µM | 10.6 µM | 6.43 µM | 35.9 µM | 2.12 µM |  |  |  |  |  | O=C(/C=C/c1ccc(CN(CCCCOc2ccccc2)Cc2ccccc2)o1)NO |
| 12.8 µM | 8.4 µM | 1.84 µM | 67.9 µM | 1.25 µM | 6.87 | 4.11 | 5.72 µM | 3.42 µM | 0.83 µM | CCN(Cc1ccc(-c2ccccc2)cc1)Cc1ccc(/C=C/C(=O)NO)o1 |
| 11.7 µM | 11.5 µM | 2.22 µM | 18.1 µM | 1.66 µM |  |  |  |  |  | Cc1ccc(OCCCN(Cc2ccc(-c3ccccc3)cc2)Cc2ccc(/C=C/C(=O)NO)o2)cc1 |
